“And” between values parts separate entries of the source, which are not always exact repeats. Equal values may be shown once. Marks after values point to notes of the source that are not given here.

One assay concerns psoriasis animal model. The assay is described as follows: Psoriasis animal model (imiquimod cream induced). The class given is in vivo, C57/BL 6J mice. Conditions: 30 mg/kg oral twice a day. An excerpt:
C57/BL 6J mice, 75, female, 7-8 weeks old, weight 18 g-20 g. The animals were from Zhejiang Weitong Lihua Experimental Animal Technology Co., Ltd. (SCXK (Zhejiang) 2019-0001), experimental animal production certificate number 20210107Abzz0619000247; experimental animal use license number: SYXK (Shanghai) 2020-0001 (Via Biotechnology (Shanghai Co., Ltd).
Modeling and administration method: Use depilatory cream to remove hair from an area of about 2 cm×3 cm on the back of each animal. Control the application time of depilatory cream within 2 minutes. Wash the depilated area with warm water, wash off the depilatory agent, and use immediately. Dry the animal's hair with a hair dryer, and place the animal on a constant-temperature electric blanket at 37° C. for 1 h-2 h. After the animal moves freely, it is placed in a cage for normal rearing and recovery for 1 day (if any animal has red, swollen and damaged skin after hair removal, remove it). On the second day, 54 animals with normal skin were selected and randomly grouped according to body weight, with 9 animals in each group, a total of 6 groups. Each animal in the G2-G6 group was evenly applied with 60 mg (60 μL) of 5 wt % imiquimod cream (Aldara) on the back every day for seven consecutive days.
Skin thickness (double-layer): Use a vernier caliper to measure the double-layer thickness of the back skin before drug administration and modeling, and on days 1, 3, 5, and 7 after drug administration.
PASI score: The condition score refers to the clinical PASI scoring standard, and scores three indicators: erythema, scale, and thickness. The total score is 12 points. The scoring standards are as follows:
Erythema: 0 points, none; 1 points, slight: light red; 2 points, moderate: red; 3 points, significant: dark red; 4 points, very obvious: extremely deep red.
Scaling: 0 points, none; 1 point, slight: there are scales on part of the epidermis, mainly fine scales; 2 points, moderate: most of the skin surface is completely or incompletely covered with scales, in a flaky form; 3 points, Significant: almost all skin is covered with scales, and the scales are thick and layered; 4 points, very obvious: all the skin is covered with scales, and the scales are thick and layered.
Plaque thickening degree: 0 points, none: flush with normal skin; 1 points, slight: slightly higher than the skin surface: 2 points, moderate: moderately raised, with round or sloped plaque edges; 3 points, obvious Score: The plaque is hypertrophic and the bulge is obvious; 4 points, very significant: it is highly thickened and the bulge is very obvious.
Skin proliferation inhibition rate (%)=1−[(skin thickness of the treatment group on the 7th day−skin thickness of the blank control group on the 7th day)/skin thickness of the negative control group on the 7th day−skin thickness of the blank control group on the 7th day)]%.
All data are expressed as Mean t SEM. The statistical analysis software SPSS23.0 was used to conduct normal distribution and homogeneity of variance tests on the data. Based on the results, the single-factor analysis of variance method was selected and the homogeneity of variance test was selected based on the results. *P<0.05 will be considered a statistically significant difference.

In assay [1] the test system is atopic dermatitis animal model. The experiment in a line: Atopic dermatitis animal model (dinitrochlorobenzene induced). The class given is in vivo, BALB/C mice. Conditions: for Inhibition rate of auricular thickening / Inhibition rate of skin thickening: 10th day of treatment. An excerpt: BALB/C mice, 55 pieces, female, were 6 weeks old at the time of purchase and 8 weeks old at the time of experiment, weighing 18 g-20 g. The animals were from Shanghai Lingchang Biotechnology Co, Ltd (SCXK (Shanghai) 2018-0003), experimental animal production certificate number 20180003012342: experimental animal use license number; SYXK(Shanghai)2020-0001 (Via Biotechnology (Shanghai) Ltd.).
Modeling and administration method; Use depilatory cream to remove the hair of an area of about 5 cm×2 cm from the top of the head to the back of each animal. The application time of the depilatory cream should be controlled within 2 minutes. Wash the depilated area with warm water and wash off the depilatory agent, immediately use a hair dryer to dry the animal's hair, and place the animal on a 37° C. constant-temperature electric blanket for 1 h-2 h. After the animal moves freely, place it in a breeding cage and recover for 1 day (if the animal's skin is red, swollen and damaged after hair removal, it will its elimination). On the second day, 42 animals with normal skin were selected and randomly divided into groups according to body weight, with 6 animals in each group, totaling 7 groups. Except for the G1 normal control group, each animal in the other groups was evenly smeared with 200 μL of 0.5 wt % dinitrochlorobenzene solution (the solvent was acetone and olive oil with a mass ratio of 3:1) on the back and auricle for three consecutive days every day. Induction (the first stage of induction), the second stage of induction started after 14 days, and was induced with 1 wt % dinitrochlorobenzene solution (the solvent was acetone and olive oil with a mass ratio of 3:1) every three days until the end of the experiment, start treatment and administration at the same time, and group administration is shown in Table 6.
Skin thickness (double layer): Use a vernier caliper to measure the double layer thickness of the back skin on the 1 day before modeling, and on the 14th, 17th, 20th, 23rd, 26th, and 28th days after modeling.
Auricle thickness: Use a vernier caliper to measure the thickness of the right auricle 1 day before modeling, and on days 14, 17, 20, 23, 26, and 28 after modeling.
AD-SI score: The condition score refers to the clinical SI scoring standard, and scores three indicators: skin color/erythema, scaly erythema, scaly/peeling/lichenification, thickening, and thickening/edema degree. The total score is 12 points. Scoring standard as follows:
Erythema/skin color: 0 points, none; 1 points, slight: light red; 2 points, moderate: red; 3 points, significant: dark red; 4 points, very obvious: extremely deep red.
Scaling/peeling/lichenification: 0 points, none; 1 point, slight: there are scales/peeling/lichenification on part of the epidermis, mainly subtle; 2 points, moderate: most of the skin surface is completely or incompletely covered with Scaling/peeling/lichenification, flaky; 3 points, significant: almost all skin is covered with scales/peeling/lichenification, and the scales/peeling/lichenification are thick and layered; 4 points, very obvious: all skin is covered with Scaling/peeling/lichenification, very thick and layered.
Thickening/edema: 0 points, none: flush with normal skin; 1 points, slight: slightly higher than the normal skin surface: 2 points, moderate: moderately raised, with round or sloped plaque edges: 3 points, obvious Score: The plaque is hypertrophic and the bulge is obvious; 4 points, very significant: it is highly thickened and the bulge is very obvious. Skin/auricle hyperplasia inhibition rate (%)=1−[(skin/auricle thickness of the treatment group−skin/auricle thickness of the blank control group)/skin/auricle thickness of the negative control group−skin/auricle of the blank control group thickness)]%.
All data are expressed as Mean±SD or Mean±SEM. Use the statistical analysis software SPSS23.0 to conduct normal distribution and homogeneity of variance tests on the data. […]

[2] abbreviates: 30 mg/kg oral twice a day, Day 0.
Setting [3] is: 30 mg/kg oral twice a day, Day 1.
Setting [4] is: 30 mg/kg oral twice a day, Day 4.
Setting [5] is: 30 mg/kg oral twice a day, Day 7.
[6] abbreviates: 30 mg/kg oral twice a day, Day 10.
Setting [7] is: 10 mg/kg oral twice a day, Day 0.
Where [8] appears, read: 10 mg/kg oral twice a day, Day 1.
Where [9] appears, read: 10 mg/kg oral twice a day, Day 4.
The mark [10] stands for this setting: 10 mg/kg oral twice a day, Day 7.
The mark [11] stands for this setting: 10 mg/kg oral twice a day, Day 10.

On to `C[C@@H]1CCN(C(=O)CC#N)C[C@@H]1N(C)c1ncnc2[nH]ccc12` [Tofacitinib, reference compound], for which the “Inhibition rate of skin thickening” value with psoriasis animal model (7th day of treatment) is 69.2%; in assay [1] (30 mg/kg oral twice a day), 27.86%. The “Average skin thickness (double layer)” value in the assay with psoriasis animal model (Day 0) was 0.51 ± 0.01 mm; in the assay with psoriasis animal model (Day 1), 0.66 ± 0.02 mm; in the assay on psoriasis animal model (Day 3) it was 1.28 ± 0.09** mm; in the assay on psoriasis animal model (Day 5), 1.09 ± 0.06*** mm; in the assay with psoriasis animal model (Day 7) it was 1.05 ± 0.04*** mm and 1.05 mm; in assay [1] (setting [2]), 0.63 ± 0.03 mm. Moreover, the “Average skin thickness (double layer)” value in assay [1] (setting [3]) is 0.99 ± 0.03 mm; in assay [1] (setting [4]), 1.13 ± 0.1 mm; in assay [1] (setting [5]) it was 1.78 ± 0.11 mm; in assay [1] (setting [6]) it was 2.08 ± 0.13 mm and 2.08 mm. For the same molecule, the PASI score is recorded as 0.0 points in the assay on psoriasis animal model (Day 0); 0.0 points with psoriasis animal model (Day 1); 4.6 ± 0.50 points in the assay with psoriasis animal model (Day 3); 4.9 ± 0.42*** points in the assay on psoriasis animal model (Day 5); 2.8 ± 0.43*** points in the assay on psoriasis animal model (Day 7). In addition, the “Inhibition rate of auricular thickening” value in assay [1] (30 mg/kg oral twice a day) was 25.86%. Besides, the AD-SI score in assay [1] (setting [2]) was 0.00 points; in assay [1] (setting [3]), 0.00 points; in assay [1] (setting [4]), 0.17 ± 0.41 points; in assay [1] (setting [5]) it was 7.17 ± 0.98 points; in assay [1] (setting [6]) it was 6.33 ± 1.37 points. The Average auricle thickness in assay [1] (setting [2]) is 0.19 ± 0.01 mm; in assay [1] (setting [3]), 0.22 ± 0.01 mm; in assay [1] (setting [4]), 0.28 ± 0.01 mm; in assay [1] (setting [5]), 0.44 ± 0.03 mm; in assay [1] (setting [6]) it was 0.64 ± 0.05 mm and 0.64 mm.

As for `CC[C@@H]1CN(C(=O)NCC(F)(F)F)C[C@@H]1c1cnc2cnc3[nH]ccc3n12` [Upatinib, Upadacitinib, reference compound], in assay [1] (10 mg/kg oral twice a day), the “Inhibition rate of auricular thickening” value is reported as 24.14%. In addition, the “Inhibition rate of skin thickening” value in assay [1] (10 mg/kg oral twice a day) came to 20.40%. The AD-SI score in assay [1] (setting [7]) came out at 0.00 points; in assay [1] (setting [8]), 0.00 points; in assay [1] (setting [9]) it was 1.00 ± 0.00 points; in assay [1] (setting [10]) it was 6.50 ± 1.05 points; in assay [1] (setting [11]), 7.17 ± 1.47 points. For the same molecule, the Average auricle thickness is 0.20 ± 0.01 mm in assay [1] (setting [7]); 0.24 ± 0.01 mm in assay [1] (setting [8]); 0.32 ± 0.03**^ mm in assay [1] (setting [9]); 0.51 ± 0.05 mm in assay [1] (setting [10]); 0.65 ± 0.03 mm and 0.65 mm in assay [1] (setting [11]). The “Average skin thickness (double layer)” value in assay [1] (setting [7]) is 0.60 ± 0.02 mm; in assay [1] (setting [8]) it was 0.89 ± 0.04 mm; in assay [1] (setting [9]), 1.07 ± 0.05 mm; in assay [1] (setting [10]), 2.06 ± 0.25 mm; in assay [1] (setting [11]) it was 2.23 ± 0.14 mm and 2.23 mm.
